The target of the first assay is T1, Nuclear factor erythroid 2-related factor 2 (Homo sapiens) (UniProt Q16236).
T1 sequence (whole entry): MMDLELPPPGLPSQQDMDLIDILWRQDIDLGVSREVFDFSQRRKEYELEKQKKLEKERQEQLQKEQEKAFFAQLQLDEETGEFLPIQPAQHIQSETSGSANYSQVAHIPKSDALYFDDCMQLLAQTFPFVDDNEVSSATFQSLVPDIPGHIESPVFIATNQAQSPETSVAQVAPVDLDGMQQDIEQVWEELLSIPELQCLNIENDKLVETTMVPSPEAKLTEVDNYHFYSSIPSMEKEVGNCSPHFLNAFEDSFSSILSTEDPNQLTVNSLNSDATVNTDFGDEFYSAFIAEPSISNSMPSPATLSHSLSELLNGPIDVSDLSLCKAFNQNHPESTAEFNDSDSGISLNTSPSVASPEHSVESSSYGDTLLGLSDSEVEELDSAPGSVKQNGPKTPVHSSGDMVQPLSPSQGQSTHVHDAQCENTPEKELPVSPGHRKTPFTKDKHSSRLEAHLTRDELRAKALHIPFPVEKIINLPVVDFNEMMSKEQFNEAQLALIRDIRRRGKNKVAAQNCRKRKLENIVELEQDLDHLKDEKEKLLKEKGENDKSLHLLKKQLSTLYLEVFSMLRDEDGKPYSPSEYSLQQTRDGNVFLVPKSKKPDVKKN
As to the kind of experiment: Induction of Nrf2-mediated ARE activity in human HepG2-ARE-C8 cells at 10 uM after 12 hrs by luciferase reporter gene assay relative to control. It is filed as cell-based. (In a reporter assay the amount or activity of a reporter protein is the signal.)
Take `COc1ccc(C(=O)/C=C2\NCC3c4ccccc4CCN3C2=O)cc1` (stereo not given): the fold change (FC) is 5.07.

For the compound `COc1cc2c(cc1OC)C1CN/C(=C\C(=O)c3ccc(F)cc3)C(=O)N1CC2` (stereo not given), the fold change (FC) was 1.25.

For `O=C(/C=C1\NCC2c3ccccc3CCN2C1=O)c1ccc(F)cc1` (stereo not given), the fold change (FC) stood at 14.

On to `COc1ccc2c(c1)C1CN/C(=C\C(=O)c3ccccc3F)C(=O)N1CC2` (stereo not given), for which the fold change (FC) was found to be 12.4.

Turning to `O=C(/C=C1\NCC2c3ccccc3CCN2C1=O)c1ccccc1F` (stereo not given), the fold change (FC) worked out at 16.9.

For the compound `COc1cc2c(cc1OC)C1CN/C(=C\C(=O)c3cccc(Cl)c3)C(=O)N1CC2` (stereo not given), the fold change (FC) turned out to be 1.44.

As to `COc1cccc(C(=O)/C=C2\NCC3c4cc(OC)ccc4CCN3C2=O)c1` (stereo not given), the fold change (FC) turned out to be 1.59.

Regarding `COc1cccc2c1CCN1C(=O)/C(=C/C(=O)c3ccccc3F)NCC21` (stereo not given), the fold change (FC) worked out at 4.26.

As to `COc1ccccc1C(=O)/C=C1\NCC2c3ccccc3CCN2C1=O` (stereo not given), the fold change (FC) stood at 1.99.

As to `O=C(/C=C1\NCC2c3ccccc3CCN2C1=O)c1cccc(Br)c1` (stereo not given), the fold change (FC) was found to be 15.7.

Consider `O=C(/C=C1\NCC2c3ccccc3CCN2C1=O)c1ccc(F)c(F)c1` (stereo not given), for which the fold change (FC) turned out to be 6.38.

Turning to `COc1ccc2c(c1)C1CN/C(=C\C(=O)c3cccc(F)c3)C(=O)N1CC2` (stereo not given), the fold change (FC) was determined as 20.4.

In the case of `O=C(/C=C1\NCC2c3ccccc3CCN2C1=O)c1ccc(Cl)cc1Cl` (stereo not given), the fold change (FC) stood at 2.49.

A further assay deals with T1, Nuclear factor erythroid 2-related factor 2 (Homo sapiens). As to the kind of experiment: Induction of Nrf2-mediated ARE activity in human HepG2-ARE-C8 cells at 0.01 uM after 12 hrs by luciferase reporter gene assay relative to control. It is filed as cell-based.
On to `COc1ccc(C(=O)/C=C2\NCC3c4ccccc4CCN3C2=O)cc1` (stereo not given), for which the fold change (FC) is 1.15.

As to `COc1cc2c(cc1OC)C1CN/C(=C\C(=O)c3ccc(F)cc3)C(=O)N1CC2` (stereo not given), the fold change (FC) was found to be 1.25.

As for `O=C(/C=C1\NCC2c3ccccc3CCN2C1=O)c1ccc(F)cc1` (stereo not given), the fold change (FC) came out at 2.58.

In the case of `COc1ccc2c(c1)C1CN/C(=C\C(=O)c3ccccc3F)C(=O)N1CC2` (stereo not given), the fold change (FC) turned out to be 1.44.

`O=C(/C=C1\NCC2c3ccccc3CCN2C1=O)c1ccccc1F` (stereo not given): the fold change (FC) is 2.5.

Regarding `COc1cc2c(cc1OC)C1CN/C(=C\C(=O)c3cccc(Cl)c3)C(=O)N1CC2` (stereo not given), the fold change (FC) is 1.41.

Take `COc1cccc(C(=O)/C=C2\NCC3c4cc(OC)ccc4CCN3C2=O)c1` (stereo not given): the fold change (FC) came to 1.08.

Turning to `COc1cccc2c1CCN1C(=O)/C(=C/C(=O)c3ccccc3F)NCC21` (stereo not given), the fold change (FC) was determined as 1.93.

For the compound `COc1ccccc1C(=O)/C=C1\NCC2c3ccccc3CCN2C1=O` (stereo not given), the fold change (FC) is 0.96.

On to `O=C(/C=C1\NCC2c3ccccc3CCN2C1=O)c1cccc(Br)c1` (stereo not given), for which the fold change (FC) came out at 3.1.

As for `O=C(/C=C1\NCC2c3ccccc3CCN2C1=O)c1ccc(F)c(F)c1` (stereo not given), the fold change (FC) is 2.12.

Turning to `COc1ccc2c(c1)C1CN/C(=C\C(=O)c3cccc(F)c3)C(=O)N1CC2` (stereo not given), the fold change (FC) came out at 1.31.

Regarding `O=C(/C=C1\NCC2c3ccccc3CCN2C1=O)c1ccc(Cl)cc1Cl` (stereo not given), the fold change (FC) worked out at 1.68.

For a further assay the target is unchanged. As to the kind of experiment: Induction of Nrf2-mediated ARE activity in human HepG2-ARE-C8 cells at 1 uM after 12 hrs by luciferase reporter gene assay relative to control. The class given is cell-based.
On to `COc1ccc(C(=O)/C=C2\NCC3c4ccccc4CCN3C2=O)cc1` (stereo not given), for which the fold change (FC) was found to be 2.74.

Take `COc1cc2c(cc1OC)C1CN/C(=C\C(=O)c3ccc(F)cc3)C(=O)N1CC2` (stereo not given): the fold change (FC) was 2.7.

As for `O=C(/C=C1\NCC2c3ccccc3CCN2C1=O)c1ccc(F)cc1` (stereo not given), the fold change (FC) was 8.

As to `COc1ccc2c(c1)C1CN/C(=C\C(=O)c3ccccc3F)C(=O)N1CC2` (stereo not given), the fold change (FC) was 3.44.

`O=C(/C=C1\NCC2c3ccccc3CCN2C1=O)c1ccccc1F` (stereo not given): the fold change (FC) stood at 8.85.

In the case of `COc1cc2c(cc1OC)C1CN/C(=C\C(=O)c3cccc(Cl)c3)C(=O)N1CC2` (stereo not given), the fold change (FC) came to 1.07.

As to `COc1cccc(C(=O)/C=C2\NCC3c4cc(OC)ccc4CCN3C2=O)c1` (stereo not given), the fold change (FC) was determined as 1.24.

As for `COc1cccc2c1CCN1C(=O)/C(=C/C(=O)c3ccccc3F)NCC21` (stereo not given), the fold change (FC) was 2.98.

`COc1ccccc1C(=O)/C=C1\NCC2c3ccccc3CCN2C1=O` (stereo not given): the fold change (FC) came to 1.51.

`O=C(/C=C1\NCC2c3ccccc3CCN2C1=O)c1cccc(Br)c1` (stereo not given): the fold change (FC) came to 8.97.

Consider `O=C(/C=C1\NCC2c3ccccc3CCN2C1=O)c1ccc(F)c(F)c1` (stereo not given), for which the fold change (FC) amounted to 3.23.

Turning to `COc1ccc2c(c1)C1CN/C(=C\C(=O)c3cccc(F)c3)C(=O)N1CC2` (stereo not given), the fold change (FC) was determined as 7.23.

Regarding `O=C(/C=C1\NCC2c3ccccc3CCN2C1=O)c1ccc(Cl)cc1Cl` (stereo not given), the fold change (FC) is 1.42.

A further assay has the same target. As to the kind of experiment: Induction of Nrf2-mediated ARE activity in human HepG2-ARE-C8 cells at 5 uM after 12 hrs by luciferase reporter gene assay relative to control. It is filed as cell-based.
Take `COc1ccc(C(=O)/C=C2\NCC3c4ccccc4CCN3C2=O)cc1` (stereo not given): the fold change (FC) came to 3.3.

Consider `COc1cc2c(cc1OC)C1CN/C(=C\C(=O)c3ccc(F)cc3)C(=O)N1CC2` (stereo not given), for which the fold change (FC) was 1.82.

As for `O=C(/C=C1\NCC2c3ccccc3CCN2C1=O)c1ccc(F)cc1` (stereo not given), the fold change (FC) stood at 12.3.

`COc1ccc2c(c1)C1CN/C(=C\C(=O)c3ccccc3F)C(=O)N1CC2` (stereo not given): the fold change (FC) is 9.84.

For `O=C(/C=C1\NCC2c3ccccc3CCN2C1=O)c1ccccc1F` (stereo not given), the fold change (FC) turned out to be 16.5.

On to `COc1cc2c(cc1OC)C1CN/C(=C\C(=O)c3cccc(Cl)c3)C(=O)N1CC2` (stereo not given), for which the fold change (FC) is 1.15.

Turning to `COc1cccc(C(=O)/C=C2\NCC3c4cc(OC)ccc4CCN3C2=O)c1` (stereo not given), the fold change (FC) was found to be 1.36.

For `COc1cccc2c1CCN1C(=O)/C(=C/C(=O)c3ccccc3F)NCC21` (stereo not given), the fold change (FC) was 5.89.

Consider `COc1ccccc1C(=O)/C=C1\NCC2c3ccccc3CCN2C1=O` (stereo not given), for which the fold change (FC) stood at 1.78.

For `O=C(/C=C1\NCC2c3ccccc3CCN2C1=O)c1cccc(Br)c1` (stereo not given), the fold change (FC) was determined as 12.

In the case of `O=C(/C=C1\NCC2c3ccccc3CCN2C1=O)c1ccc(F)c(F)c1` (stereo not given), the fold change (FC) was 5.47.

`COc1ccc2c(c1)C1CN/C(=C\C(=O)c3cccc(F)c3)C(=O)N1CC2` (stereo not given): the fold change (FC) stood at 16.9.

Consider `O=C(/C=C1\NCC2c3ccccc3CCN2C1=O)c1ccc(Cl)cc1Cl` (stereo not given), for which the fold change (FC) came to 1.78.

Another assay has the same target. Nature of the assay: Induction of Nrf2-mediated ARE activity in human HepG2-ARE-C8 cells at 0.1 uM after 12 hrs by luciferase reporter gene assay relative to control. It is filed as cell-based.
With `COc1ccc(C(=O)/C=C2\NCC3c4ccccc4CCN3C2=O)cc1` (stereo not given), the fold change (FC) is 2.3.

As for `COc1cc2c(cc1OC)C1CN/C(=C\C(=O)c3ccc(F)cc3)C(=O)N1CC2` (stereo not given), the fold change (FC) amounted to 1.42.

For the compound `O=C(/C=C1\NCC2c3ccccc3CCN2C1=O)c1ccc(F)cc1` (stereo not given), the fold change (FC) is 4.39.

Take `COc1ccc2c(c1)C1CN/C(=C\C(=O)c3ccccc3F)C(=O)N1CC2` (stereo not given): the fold change (FC) turned out to be 2.75.

For `O=C(/C=C1\NCC2c3ccccc3CCN2C1=O)c1ccccc1F` (stereo not given), the fold change (FC) worked out at 3.64.

Regarding `COc1cc2c(cc1OC)C1CN/C(=C\C(=O)c3cccc(Cl)c3)C(=O)N1CC2` (stereo not given), the fold change (FC) was determined as 1.47.

`COc1cccc(C(=O)/C=C2\NCC3c4cc(OC)ccc4CCN3C2=O)c1` (stereo not given): the fold change (FC) worked out at 1.21.

As for `COc1cccc2c1CCN1C(=O)/C(=C/C(=O)c3ccccc3F)NCC21` (stereo not given), the fold change (FC) came to 2.83.

With `COc1ccccc1C(=O)/C=C1\NCC2c3ccccc3CCN2C1=O` (stereo not given), the fold change (FC) came out at 1.68.

Turning to `O=C(/C=C1\NCC2c3ccccc3CCN2C1=O)c1cccc(Br)c1` (stereo not given), the fold change (FC) came to 3.4.

As for `O=C(/C=C1\NCC2c3ccccc3CCN2C1=O)c1ccc(F)c(F)c1` (stereo not given), the fold change (FC) came out at 2.25.

Take `COc1ccc2c(c1)C1CN/C(=C\C(=O)c3cccc(F)c3)C(=O)N1CC2` (stereo not given): the fold change (FC) turned out to be 3.93.

As to `O=C(/C=C1\NCC2c3ccccc3CCN2C1=O)c1ccc(Cl)cc1Cl` (stereo not given), the fold change (FC) amounted to 1.1.

(Values after ChEMBL document CHEMBL2429758, “3-aroylmethylene-2,3,6,7-tetrahydro-1H-pyrazino[2,1-a]isoquinolin-4(11bH)-ones as potent Nrf2/ARE inducers in human cancer cells and AOM-DSS treated mice” (J Med Chem, 2013).)
